Experimental data from ChEMBL document CHEMBL4052714, “Synthesis and antibacterial activity of novel 4″-O-(1-aralkyl-1,2,3-triazol-4-methyl-carbamoyl) azithromycin analogs” (2017).
Values after ≈ are worked out from the molar mass of the structure shown.

Key:
Format in all cases: functional
Staphylococcus aureus [1] = experiment: Antibacterial activity against erythromycin-susceptible Staphylococcus aureus ATCC 25923
Streptococcus pneumoniae [2] = experiment: Antibacterial activity against erythromycin-susceptible Streptococcus pneumoniae ATCC 49619
Staphylococcus aureus [3] = experiment: Antibacterial activity against methicillin-susceptible Staphylococcus aureus ATCC 29213
Streptococcus pyogenes [4] = experiment: Antibacterial activity against erythromycin-susceptible Streptococcus pyogenes isolate S2
Streptococcus pyogenes [5] = experiment: Antibacterial activity against erythromycin-resistant Streptococcus pyogenes isolate R2
Streptococcus pneumoniae [6] = experiment: Antibacterial activity against erythromycin-resistant Streptococcus pneumoniae B1 expressing ermB gene
Streptococcus pneumoniae [7] = experiment: Antibacterial activity against erythromycin-resistant Streptococcus pneumoniae A22072 expressing mefA gene
Streptococcus pneumoniae [8] = experiment: Antibacterial activity against erythromycin-resistant Streptococcus pneumoniae AB11 expressing ermB/mefA gene
Escherichia coli = experiment: Antibacterial activity against Escherichia coli ATCC 25922
Pseudomonas aeruginosa = experiment: Antibacterial activity against Pseudomonas aeruginosa ATCC 27853

Work on `CC[C@H]1OC(=O)[C@H](C)[C@@H](O[C@H]2C[C@@](C)(OC)[C@@H](OC(=O)NCc3cn(Cc4ccccc4F)nn3)[C@H](C)O2)[C@H](C)[C@@H](O[C@@H]2O[C@H](C)C[C@H](N(C)C)[C@H]2O)[C@](C)(O)C[C@@H](C)CN(C)[C@H](C)[C@H]2OC(=O)O[C@@]21C` yielded an MIC (Staphylococcus aureus [1]) of 4 µg/mL (≈ 3.97 µM), an MIC (Streptococcus pneumoniae [2]) of 0.5 µg/mL (≈ 0.496 µM) and an MIC (Staphylococcus aureus [3]) of 32 µg/mL (≈ 31.8 µM). It also gave an MIC (Streptococcus pyogenes [4]) of 0.125 µg/mL (≈ 0.124 µM), an MIC (Streptococcus pyogenes [5]) of 128 µg/mL (≈ 127 µM) and an MIC (Streptococcus pneumoniae [6]) of 2 µg/mL (≈ 1.99 µM). The MIC (Streptococcus pneumoniae [7]) was 1 µg/mL (≈ 0.993 µM), the MIC (Streptococcus pneumoniae [8]) was 0.25 µg/mL (≈ 0.248 µM) and the MIC (Escherichia coli) was 128 µg/mL (≈ 127 µM). For the same molecule, the MIC (Pseudomonas aeruginosa) was 64 µg/mL (≈ 63.5 µM).

`CC[C@H]1OC(=O)[C@H](C)[C@@H](O[C@H]2C[C@@](C)(OC)[C@@H](OC(=O)NCc3cn(Cc4ccc(Cl)cc4)nn3)[C@H](C)O2)[C@H](C)[C@@H](O[C@@H]2O[C@H](C)C[C@H](N(C)C)[C@H]2O)[C@](C)(O)C[C@@H](C)CN(C)[C@H](C)[C@H]2OC(=O)O[C@@]21C` gave an MIC (Staphylococcus aureus [1]) of 4 µg/mL (≈ 3.91 µM), an MIC (Streptococcus pneumoniae [2]) of 1 µg/mL (≈ 0.977 µM) and an MIC (Staphylococcus aureus [3]) of 32 µg/mL (≈ 31.3 µM). It also gave an MIC (Streptococcus pyogenes [4]) of 0.125 µg/mL (≈ 0.122 µM), an MIC (Streptococcus pyogenes [5]) of 64 µg/mL (≈ 62.5 µM) and an MIC (Streptococcus pneumoniae [6]) of 8 µg/mL (≈ 7.82 µM). The MIC (Streptococcus pneumoniae [7]) was 1 µg/mL (≈ 0.977 µM), the MIC (Streptococcus pneumoniae [8]) was 4 µg/mL (≈ 3.91 µM) and the MIC (Escherichia coli) was 64 µg/mL (≈ 62.5 µM). For the same molecule, the MIC (Pseudomonas aeruginosa) was 64 µg/mL (≈ 62.5 µM).

In the case of `CC[C@H]1OC(=O)[C@H](C)[C@@H](O[C@H]2C[C@@](C)(OC)[C@@H](OC(=O)NCc3cn(Cc4ccccc4)nn3)[C@H](C)O2)[C@H](C)[C@@H](O[C@@H]2O[C@H](C)C[C@H](N(C)C)[C@H]2O)[C@](C)(O)C[C@@H](C)CN(C)[C@H](C)[C@H]2OC(=O)O[C@@]21C`, the MIC (Staphylococcus aureus [1]) is reported as 4 µg/mL (≈ 4.04 µM), the MIC (Streptococcus pneumoniae [2]) is reported as 0.5 µg/mL (≈ 0.505 µM) and the MIC (Staphylococcus aureus [3]) is reported as 32 µg/mL (≈ 32.3 µM). It also gave an MIC (Streptococcus pyogenes [4]) of 0.06 µg/mL (≈ 0.0607 µM), an MIC (Streptococcus pyogenes [5]) of 128 µg/mL (≈ 129 µM) and an MIC (Streptococcus pneumoniae [6]) of 8 µg/mL (≈ 8.09 µM). For the same molecule, the MIC (Streptococcus pneumoniae [7]) was 8 µg/mL (≈ 8.09 µM), the MIC (Streptococcus pneumoniae [8]) was 4 µg/mL (≈ 4.04 µM) and the MIC (Escherichia coli) was 128 µg/mL (≈ 129 µM). For the same molecule, the MIC (Pseudomonas aeruginosa) was 64 µg/mL (≈ 64.7 µM).

In the case of `CC[C@H]1OC(=O)[C@H](C)[C@@H](O[C@H]2C[C@@](C)(OC)[C@@H](OC(=O)NCc3cn(Cc4ccc(C)cc4)nn3)[C@H](C)O2)[C@H](C)[C@@H](O[C@@H]2O[C@H](C)C[C@H](N(C)C)[C@H]2O)[C@](C)(O)C[C@@H](C)CN(C)[C@H](C)[C@@H](OC(=O)NCc2ccccc2)[C@]1(C)O`, the MIC (Staphylococcus aureus [1]) is reported as 0.5 µg/mL (≈ 0.45 µM), the MIC (Streptococcus pneumoniae [2]) is reported as 0.125 µg/mL (≈ 0.113 µM) and the MIC (Staphylococcus aureus [3]) is reported as 16 µg/mL (≈ 14.4 µM). The MIC (Streptococcus pyogenes [4]) was < 0.002 µg/mL, the MIC (Streptococcus pyogenes [5]) was 32 µg/mL (≈ 28.8 µM) and the MIC (Streptococcus pneumoniae [6]) was 0.25 µg/mL (≈ 0.225 µM). The MIC (Streptococcus pneumoniae [7]) was 0.125 µg/mL (≈ 0.113 µM), the MIC (Streptococcus pneumoniae [8]) was 0.25 µg/mL (≈ 0.225 µM) and the MIC (Escherichia coli) was 32 µg/mL (≈ 28.8 µM). It also gave an MIC (Pseudomonas aeruginosa) of 32 µg/mL (≈ 28.8 µM).

With `CC[C@H]1OC(=O)[C@H](C)[C@@H](O[C@H]2C[C@@](C)(OC)[C@@H](OC(=O)NCc3cn(Cc4ccccc4)nn3)[C@H](C)O2)[C@H](C)[C@@H](O[C@@H]2O[C@H](C)C[C@H](N(C)C)[C@H]2O)[C@](C)(O)C[C@@H](C)CN(C)[C@H](C)[C@@H](OC(=O)NCc2ccncc2)[C@]1(C)O` the MIC (Staphylococcus aureus [1]) was 1 µg/mL (≈ 0.911 µM), the MIC (Streptococcus pneumoniae [2]) was 0.5 µg/mL (≈ 0.456 µM) and the MIC (Staphylococcus aureus [3]) was 32 µg/mL (≈ 29.2 µM). It also gave an MIC (Streptococcus pyogenes [4]) of 0.03 µg/mL (≈ 0.0273 µM), an MIC (Streptococcus pyogenes [5]) of 32 µg/mL (≈ 29.2 µM) and an MIC (Streptococcus pneumoniae [6]) of 0.125 µg/mL (≈ 0.114 µM). It also gave an MIC (Streptococcus pneumoniae [7]) of 0.06 µg/mL (≈ 0.0547 µM), an MIC (Streptococcus pneumoniae [8]) of 0.25 µg/mL (≈ 0.228 µM) and an MIC (Escherichia coli) of 32 µg/mL (≈ 29.2 µM). The MIC (Pseudomonas aeruginosa) was 64 µg/mL (≈ 58.3 µM).

`CC[C@H]1OC(=O)[C@H](C)[C@@H](O[C@H]2C[C@@](C)(OC)[C@@H](OC(=O)NCc3cn(Cc4cccc(Cl)c4)nn3)[C@H](C)O2)[C@H](C)[C@@H](O[C@@H]2O[C@H](C)C[C@H](N(C)C)[C@H]2O)[C@](C)(O)C[C@@H](C)CN(C)[C@H](C)[C@H]2OC(=O)O[C@@]21C` showed an MIC (Staphylococcus aureus [1]) of 4 µg/mL (≈ 3.91 µM), an MIC (Streptococcus pneumoniae [2]) of 1 µg/mL (≈ 0.977 µM) and an MIC (Staphylococcus aureus [3]) of 32 µg/mL (≈ 31.3 µM). For the same molecule, the MIC (Streptococcus pyogenes [4]) was 0.06 µg/mL (≈ 0.0586 µM), the MIC (Streptococcus pyogenes [5]) was 16 µg/mL (≈ 15.6 µM) and the MIC (Streptococcus pneumoniae [6]) was 4 µg/mL (≈ 3.91 µM). It also gave an MIC (Streptococcus pneumoniae [7]) of 0.5 µg/mL (≈ 0.488 µM), an MIC (Streptococcus pneumoniae [8]) of 1 µg/mL (≈ 0.977 µM) and an MIC (Escherichia coli) of 128 µg/mL (≈ 125 µM). For the same molecule, the MIC (Pseudomonas aeruginosa) was 64 µg/mL (≈ 62.5 µM).

`CC[C@H]1OC(=O)[C@H](C)[C@@H](O[C@H]2C[C@@](C)(OC)[C@@H](OC(=O)NCc3cn(Cc4ccccc4)nn3)[C@H](C)O2)[C@H](C)[C@@H](O[C@@H]2O[C@H](C)C[C@H](N(C)C)[C@H]2O)[C@](C)(O)C[C@@H](C)CN(C)[C@H](C)[C@@H](OC(=O)NCCc2ccccc2)[C@]1(C)O` gave an MIC (Staphylococcus aureus [1]) of 0.25 µg/mL (≈ 0.225 µM), an MIC (Streptococcus pneumoniae [2]) of 0.125 µg/mL (≈ 0.113 µM) and an MIC (Staphylococcus aureus [3]) of 16 µg/mL (≈ 14.4 µM). For the same molecule, the MIC (Streptococcus pyogenes [4]) was < 0.002 µg/mL, the MIC (Streptococcus pyogenes [5]) was 32 µg/mL (≈ 28.8 µM) and the MIC (Streptococcus pneumoniae [6]) was 0.25 µg/mL (≈ 0.225 µM). The MIC (Streptococcus pneumoniae [7]) was 0.125 µg/mL (≈ 0.113 µM), the MIC (Streptococcus pneumoniae [8]) was 0.25 µg/mL (≈ 0.225 µM) and the MIC (Escherichia coli) was 16 µg/mL (≈ 14.4 µM). It also gave an MIC (Pseudomonas aeruginosa) of 8 µg/mL (≈ 7.2 µM).

With `CC[C@H]1OC(=O)[C@H](C)[C@@H](O[C@H]2C[C@@](C)(OC)[C@@H](OC(=O)NCc3cn(Cc4ccc(F)cc4)nn3)[C@H](C)O2)[C@H](C)[C@@H](O[C@@H]2O[C@H](C)C[C@H](N(C)C)[C@H]2O)[C@](C)(O)C[C@@H](C)CN(C)[C@H](C)[C@H]2OC(=O)O[C@@]21C` the MIC (Staphylococcus aureus [1]) was 4 µg/mL (≈ 3.97 µM), the MIC (Streptococcus pneumoniae [2]) was 1 µg/mL (≈ 0.993 µM) and the MIC (Staphylococcus aureus [3]) was 32 µg/mL (≈ 31.8 µM). For the same molecule, the MIC (Streptococcus pyogenes [4]) was 0.125 µg/mL (≈ 0.124 µM), the MIC (Streptococcus pyogenes [5]) was 32 µg/mL (≈ 31.8 µM) and the MIC (Streptococcus pneumoniae [6]) was 8 µg/mL (≈ 7.94 µM). For the same molecule, the MIC (Streptococcus pneumoniae [7]) was 1 µg/mL (≈ 0.993 µM), the MIC (Streptococcus pneumoniae [8]) was 4 µg/mL (≈ 3.97 µM) and the MIC (Escherichia coli) was 128 µg/mL (≈ 127 µM). For the same molecule, the MIC (Pseudomonas aeruginosa) was 64 µg/mL (≈ 63.5 µM).
